Blank lines part the entries; values can stand above or below the molecule they belong to.
Experiments:
in vitro = conditions: Caco-2
[1] = Bidirectional permeability across Caco-2 cell monolayers (no excipients); conditions: human; for recovery: Caco-2, no excipients, cassette, mean ± SD, n = 3
in vivo = conditions: Sprague-Dawley, rat, pH 6.8, Effective permeability coefficient (Peff), rat jejunum, mean ± SEM, n = 4
[2] = Unidirectional (A→B) permeability across Caco-2 cell monolayers in presence and absence of excipients; conditions: human, Caco-2, Apparent permeability coefficient (Papp), mean ± SEM, n = 4
[3] = Recirculating in situ rat intestinal perfusion (jejunum) in presence and absence of excipients; conditions: Sprague-Dawley, pH 6.8, Effective permeability coefficient (Peff), mean ± SEM, n = 4

Papp A→B (in vitro): 29.8 ± 1.8 ×10⁻⁶ cm/s
recovery ([1]; Caco-2, A→B Recovery): 82.2 ± 8.6%
recovery ([1]; Caco-2, B→A Recovery): 94.9 ± 12.2%
SMILES: Nc1nc2c(ncn2COCCO)c(=O)[nH]1 [Acyclovir, acyclovir]

Papp at 90 min (in vivo; Control (no excipient)): 143 ± 17 ×10⁻⁶ cm/s
Papp at 90 min (in vivo; HPMC 0.06 mg/ml): 168 ± 35 ×10⁻⁶ cm/s
Papp at 90 min (in vivo; PEG 400 0.06 mg/ml): 117 ± 22 ×10⁻⁶ cm/s
Papp at 90 min (in vivo; PEG 400 0.30 mg/ml (first run)): 82 ± 15 ×10⁻⁶ cm/s
Papp at 90 min (in vivo; PEG 400 0.30 mg/ml, second run): 153 ± 18 ×10⁻⁶ cm/s
Papp at 90 min (in vivo; PEG 400 […]): 90 ± 26 ×10⁻⁶ cm/s
Papp at 90 min (in vivo; Povidone 0.06 mg/ml): 133 ± 42 ×10⁻⁶ cm/s
Papp at 90 min (in vivo; SLS 0.01 mg/ml): 175 ± 23 ×10⁻⁶ cm/s
Papp at 90 min (in vivo; SLS 0.02 mg/ml): 93 ± 26 ×10⁻⁶ cm/s
Papp at 90 min (in vivo; SLS 0.04 mg/ml): 108 ± 18 ×10⁻⁶ cm/s
Papp at 90 min (in vivo; SLS […]): 157 ± 46 ×10⁻⁶ cm/s
SMILES: Cc1cc(=O)n(-c2ccccc2)n1C [Antipyrine, antipyrine]

Papp A→B (in vitro): 33 ± 0.7 ×10⁻⁶ cm/s
Papp A→B ([2]; Control a (no excipient)): 0.21 ± 0.06 ×10⁻⁶ cm/s
Papp A→B ([2]; Control b (no excipient)): 0.21 ± 0.04 ×10⁻⁶ cm/s
Papp A→B ([2]; D-Lactose 1.0 mg/ml (control set b)): 0.14 ± 0.05 ×10⁻⁶ cm/s
Papp A→B ([2]; D-Lactose 2.0 mg/ml (control set b)): 0.13 ± 0.01 ×10⁻⁶ cm/s
Papp A→B ([2]; HPMC 0.06 mg/ml (control set a)): 0.14 ± 0.05 ×10⁻⁶ cm/s
Papp A→B ([2]; HPMC 1.0 mg/ml (control set b)): 0.13 ± 0.05 ×10⁻⁶ cm/s
Papp A→B ([2]; HPMC 2.0 mg/ml (control set b)): 0.11 ± 0.02 ×10⁻⁶ cm/s
Papp A→B ([2]; PEG 400 0.06 mg/ml (control set a)): 0.13 ± 0.01 ×10⁻⁶ cm/s
Papp A→B ([2]; PEG 400 […] (control set a)): 0.14 ± 0.04 ×10⁻⁶ cm/s
Papp A→B ([2]; PEG 400 […] (control set b)): 0.27 ± 0.04 ×10⁻⁶ cm/s
Papp A→B ([2]; Povidone 0.06 mg/ml (control set a)): 0.09 ± 0.02 ×10⁻⁶ cm/s
Papp A→B ([2]; Povidone 0.2 mg/ml (control set b)): 0.15 ± 0.05 ×10⁻⁶ cm/s
Papp A→B ([2]; SLS 0.01 mg/ml (control set a)): 0.23 ± 0.07 ×10⁻⁶ cm/s
Papp A→B ([2]; SLS 0.02 mg/ml (control set a)): 0.31 ± 0.05 ×10⁻⁶ cm/s
Papp A→B ([2]; SLS 0.04 mg/ml (control set a)): 0.31 ± 0.1 ×10⁻⁶ cm/s
Papp A→B ([1]; Caco-2): 0.29 ± 0.16 ×10⁻⁶ cm/s
Papp B→A ([1]; Caco-2): 0.71 ± 0.15 ×10⁻⁶ cm/s
recovery ([1]; Caco-2, A→B Recovery): 83.9 ± 9.1%
recovery ([1]; Caco-2, B→A Recovery): 90.7 ± 12.2%
Papp at 90 min ([3]; other: closed-loop recirculating in situ jejunal perfusion, HPMC 0.06 mg/ml): 40 ± 7 ×10⁻⁶ cm/s
Papp at 90 min ([3]; other: closed-loop recirculating in situ jejunal perfusion, HPMC […]): 7 ± 17 ×10⁻⁶ cm/s
Papp at 90 min ([3]; other: closed-loop recirculating in situ jejunal perfusion, PEG 400 0.06 mg/ml): 24 ± 8 ×10⁻⁶ cm/s
Papp at 90 min ([3]; other: closed-loop recirculating in situ jejunal perfusion, PEG 400 0.30 mg/ml (first run)): 1 ± 1 ×10⁻⁶ cm/s
Papp at 90 min ([3]; other: closed-loop recirculating in situ jejunal perfusion, PEG 400 […]): 25 ± 8 ×10⁻⁶ cm/s
Papp at 90 min ([3]; other: closed-loop recirculating in situ jejunal perfusion, SLS 0.01 mg/ml): 32 ± 15 ×10⁻⁶ cm/s
Papp at 90 min ([3]; other: closed-loop recirculating in situ jejunal perfusion, SLS 0.02 mg/ml): 37 ± 10 ×10⁻⁶ cm/s
Papp at 90 min ([3]; other: closed-loop recirculating in situ jejunal perfusion, SLS 0.04 mg/ml): 1 ± 2 ×10⁻⁶ cm/s
Papp at 90 min ([3]; Povidone […]): 13 ± 1.5 ×10⁻⁶ cm/s
SMILES: CC(C)(C)NCC(O)COc1cccc2c1CC(O)C(O)C2 (stereo not shown) [Nadolol, nadolol]

Reference: PMC4689772, “The Effect of Excipients on the Permeability of BCS Class III Compounds and Implications for Biowaivers” (Pharmaceutical Research, 2015)
